The supplement of paper PMC10307832

Columns and labels:
Experiment in all cases: relative viability (nuclei count vs DMSO), 5 days (fraction); higher = more cells survive
[1] = compound: CCCS(=O)(=O)Nc1ccc(F)c(C(=O)c2c[nH]c3ncc(-c4ccc(Cl)cc4)cc23)c1F [Vemurafenib] + CC1(C)CCC(c2ccc(Cl)cc2)=C(CN2CCN(c3ccc(C(=O)NS(=O)(=O)c4ccc(N[C@H](CCN5CCOCC5)CSc5ccccc5)c(S(=O)(=O)C(F)(F)F)c4)cc3)CC2)C1 [Navitoclax] (partner 0.5 µM)
In short: (§1)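 Nuclei were stained with Hoechst during a one-step fixation (final 0.05% Triton X-100, 1% formaldehyde, 1 ug/ml Hoechst) carried out 5 days after dosing, then counted on 4× images. The cells, lung cancer lines in 1536-well plates, had been dosed by pin tool the day after seeding with one drug alone or a fixed anchor-drug dose plus five library-drug doses (not always all listed) in √10 steps. Relative viability is the nuclei count in treated wells divided by that in vehicle wells, and each value is the median of duplicate plates.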

[2] = compound: CCCS(=O)(=O)Nc1ccc(F)c(C(=O)c2c[nH]c3ncc(-c4ccc(Cl)cc4)cc23)c1F [Vemurafenib] + Cc1nc(NC(=O)N2CCC[C@H]2C(N)=O)sc1-c1ccnc(C(C)(C)C(F)(F)F)c1 [Alpelisib] (partner 2 µM)
In short: as §1

[3] = compound: COc1cccc2cc(-c3nc([C@H]4CC[C@H](C(=O)O)CC4)n4ncnc(N)c34)[nH]c12 [OSI-027] + COc1cc2c(Oc3ccc(NC(=O)C4(C(=O)Nc5ccc(F)cc5)CC4)cc3F)ccnc2cc1OCCCN1CCOCC1 [Foretinib] (partner 0.25 µM)
In short: as §1

[4] = compound: COc1cccc2cc(-c3nc([C@H]4CC[C@H](C(=O)O)CC4)n4ncnc(N)c34)[nH]c12 [OSI-027] + Cc1nc(NC(=O)N2CCC[C@H]2C(N)=O)sc1-c1ccnc(C(C)(C)C(F)(F)F)c1 [Alpelisib] (partner 2 µM)
In short: as §1

Row | Cell Line | relative viability ([1]; first compound 0.03162 µM) | relative viability ([1]; first compound 0.1 µM) | relative viability ([1]; first compound 0.3162 µM) | relative viability ([1]; first compound 1 µM) | relative viability ([2]; first compound 0.03162 µM) | relative viability ([2]; first compound 0.1 µM) | relative viability ([2]; first compound 0.3162 µM) | relative viability ([2]; first compound 1 µM) | relative viability ([3]; first compound 0.01 µM) | relative viability ([3]; first compound 0.03162 µM) | relative viability ([3]; first compound 0.1 µM) | relative viability ([3]; first compound 0.3162 µM) | relative viability ([3]; first compound 1 µM) | relative viability ([4]; first compound 0.01 µM) | relative viability ([4]; first compound 0.03162 µM) | relative viability ([4]; first compound 0.1 µM) | relative viability ([4]; first compound 0.3162 µM) | relative viability ([4]; first compound 1 µM)
1 | A-427 | 0.969 | 0.887 | 0.977 | 0.94 | 1.02 | 1.09 | 1.11 | 1.14 | 0.952 | 1 | 0.89 | 0.707 | 0.423 | 1.04 | 1.08 | 0.961 | 0.82 | 0.429
2 | NCI-H2023 | 0.974 | 1.03 | 1.03 | 1.02 | 0.614 | 0.524 | 0.749 | 0.538 | 0.964 | 0.925 | 0.785 | 0.765 | 0.461 | 0.608 | 0.499 | 0.505 | 0.34 | 0.19
3 | NCI-H2347 | 0.633 | 0.78 | 0.7 | 0.75 | 1.01 | 1.02 | 0.757 | 1.04 | 0.914 | 1.15 | 0.633 | 0.494 | 0.468 | 1.11 | 0.899 | 0.974 | 0.717 | 0.416
4 | NCI-H1299 | 1.03 | 1.03 | 0.976 | 1.03 | 1.05 | 1.05 | 0.928 | 0.985 | 1.14 | 1.13 | 1.09 | 1.14 | 1.03 | 1.11 | 1.05 | 1.12 | 1.08 | 0.786
5 | NCI-H1975 | 0.94 | 1.11 | 0.952 | 1.03 | 0.582 | 0.608 | 0.526 | 0.629 | 1 | 0.954 | 0.783 | 0.841 | 0.635 | 0.659 | 0.667 | 0.455 | 0.38 | 0.355
6 | HCC-15 | 0.679 | 0.71 | 0.736 | 0.73 | 0.864 | 0.892 | 0.874 | 0.881 | 1.11 | 0.954 | 0.969 | 0.895 | 0.58 | 0.928 | 0.826 | 0.806 | 0.674 | 0.288
7 | COR-L23 | 0.841 | 0.988 | 0.76 | 0.953 | 0.706 | 0.693 | 0.687 | 0.78 | 1.01 | 0.844 | 0.993 | 1.06 | 0.772 | 0.876 | 0.784 | 0.696 | 0.486 | 0.273
8 | NCI-H23 | 0.894 | 0.9 | 0.888 | 0.796 | 0.626 | 0.642 | 0.912 | 0.664 | 0.908 | 0.937 | 0.929 | 0.653 | 0.464 | 0.594 | 0.54 | 0.632 | 0.481 | 0.295
9 | NCI-H441 | 0.798 | 0.614 | – | 0.735 | 0.791 | 0.741 | – | 0.534 | 1.09 | 0.859 | 0.842 | 0.823 | 0.538 | 0.716 | 0.718 | 0.686 | 0.636 | 0.273
